Patent publication US9675614B2, “PRMT5 inhibitors and uses thereof” (Epizyme, Inc., priority 2012, dated 2017)

Target: PRMT5/MEP50 (Homo sapiens (Human), UniProt O14744)
Test: PRMT5 Biochemical Assay (PRMT5/MEP50 enzyme assay on peptide substrate, 3H-SAM Flashplate)
Conditions: PRMT5/MEP50 biochemical assay; read-out: Biochemical IC50
Source text: S-adenosylmethionine (SAM), S-adenosylhomocysteine (SAH), bicine, KCl, Tween20, dimethylsulfoxide (DMSO), bovine skin gelatin (BSG), and Tris(2-carboxyethyl)phosphine hydrochloride solution (TCEP) were purchased from Sigma-Aldrich at the highest level of purity possible. ^3H-SAM was purchase from American Radiolabeled Chemicals with a specific activity of 80 Ci/mmol. 384-well streptavidin Flashplates were purchased from PerkinElmer.
Peptide representative of human histone H4 residues 1-15 was synthesized with a C-terminal linker-affinity tag motif and a C-terminal amide cap by 21st Century Biochemicals. […] The sequence was Ac-[…][K-Biot]amide (SEQ ID NO.:3).
Full-length human MEP50 (NM_024102) clone was amplified from a human testis cDNA library incorporating a 5′ sequence encoding a 6-histidine tag (MHHHHHH) (SEQ ID NO.:5) fused directly to Arg 2 of MEP50. The amplified genes were subcloned into pENTR/D/TEV (Life Technologies) and subsequently transferred by Gateway™ attL×attR recombination to pDEST8 baculvirus expression vector (Life Technologies).
Recombinant baculovirus and Baculovirus-Infected Insect Cells (BIIC) were generated according to Bac-to-Bac kit instructions (Life Technologies) and Wasilko, 2006, respectively. Protein over-expression was accomplished by infecting exponentially growing Spodoptera frugiperda (SF9) cell culture at 1.2×10^6 cell/ml with a 5000 fold dilution of BIIC stock. Infections were carried out at 27° C. for 72 hours, harvested by centrifugation, and stored at −80° C. for purification.
Flag-PRMT5/6His-MeP50 was eluted with 300 mM Imidazole in the same buffer. […] Reference: Wasilko, D. J. and S. E. Lee: “TIPS: titerless infected-cells preservation and scale-up” Bioprocess J., 5 (2006), pp. 29-32.
General Procedure for PRMT5/MEP50 Enzyme Assays on Peptide Substrates.
The assays were all performed in a buffer consisting of 20 mM Bicine (pH=7.6), 1 mM TCEP, 0.005% BSG, and 0.002% Tween20, prepared on the day of use. Compounds in 100% DMSO (1 ul) were spotted into a polypropylene 384-well V-bottom plates (Greiner) using a Platemate Plus outfitted with a 384-channel head (Thermo Scientific). DMSO (1 ul) was added to Columns 11, 12, 23, 24, rows A-H for the maximum signal control and 1 ul of SAH, a known product and inhibitor of PRMT5/MEP50, was added to columns 11, 12, 23, 24, rows I-P for the minimum signal control. A cocktail (40 ul) containing the PRMT5/MEP50 enzyme and the peptide was added by Multidrop Combi (Thermo-Fisher). The compounds were allowed to incubate with PRMT5/MEP50 for 30 min at 25 degrees Celsius, then a cocktail (10 ul) containing ^3H-SAM was added to initiate the reaction (final volume=51 ul). The final concentrations of the components were as follows: PRMT5/MEP50 was 4 nM, ^3H-SAM was 75 nM, peptide was 40 nM, SAH in the minimum signal control wells was 100 uM, and the DMSO concentration was 1%. The assays were stopped by the addition of non-radioactive SAM (10 ul) to a final concentration of 600 uM, which dilutes the ^3H-SAM to a level where its incorporation into the peptide substrate is no longer detectable. 50 ul of the reaction in the 384-well polypropylene plate was then transferred to a 384-well Flashplate and the biotinylated peptides were allowed to bind to the streptavidin surface for at least 1 hour before being washed three times with 0.1% Tween20 in a Biotek ELx405 plate washer. The plates were then read in a PerkinElmer TopCount plate reader to measure the quantity of ^3H-labeled peptide bound to the Flashplate surface, measured as disintegrations per minute (dpm) or alternatively, referred to as counts per minute (cpm).
[formula] Where dpm=disintegrations per minute, cmpd=signal in assay well, and min and max are the respective minimum and maximum signal controls.
[formula] Where top and bottom are the normally allowed to float, but may be fixed at 100 or 0 respectively in a 3-parameter fit.

PRMT5/MEP50, sequence (O14744 other isoform, or with tags, fused parts or gaps): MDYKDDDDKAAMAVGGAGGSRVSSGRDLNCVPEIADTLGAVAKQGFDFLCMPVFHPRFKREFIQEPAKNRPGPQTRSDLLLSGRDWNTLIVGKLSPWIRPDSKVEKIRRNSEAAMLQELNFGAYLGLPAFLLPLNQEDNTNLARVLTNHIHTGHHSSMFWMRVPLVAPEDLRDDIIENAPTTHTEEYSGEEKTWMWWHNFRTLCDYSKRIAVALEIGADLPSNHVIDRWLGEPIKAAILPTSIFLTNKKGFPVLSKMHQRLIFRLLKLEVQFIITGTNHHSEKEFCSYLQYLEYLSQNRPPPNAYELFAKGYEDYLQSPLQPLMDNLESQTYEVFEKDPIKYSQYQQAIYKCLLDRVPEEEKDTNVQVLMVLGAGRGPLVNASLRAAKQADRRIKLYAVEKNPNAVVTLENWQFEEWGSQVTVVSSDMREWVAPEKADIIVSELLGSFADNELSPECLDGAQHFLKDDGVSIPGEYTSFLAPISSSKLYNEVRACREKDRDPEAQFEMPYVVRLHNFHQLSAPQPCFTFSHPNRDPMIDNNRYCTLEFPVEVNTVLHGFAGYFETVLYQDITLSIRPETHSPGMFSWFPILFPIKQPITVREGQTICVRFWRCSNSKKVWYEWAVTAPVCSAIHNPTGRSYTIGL
PRMT5/MEP50, sequence (Q9BQA1 other isoform, or with tags, fused parts or gaps partner): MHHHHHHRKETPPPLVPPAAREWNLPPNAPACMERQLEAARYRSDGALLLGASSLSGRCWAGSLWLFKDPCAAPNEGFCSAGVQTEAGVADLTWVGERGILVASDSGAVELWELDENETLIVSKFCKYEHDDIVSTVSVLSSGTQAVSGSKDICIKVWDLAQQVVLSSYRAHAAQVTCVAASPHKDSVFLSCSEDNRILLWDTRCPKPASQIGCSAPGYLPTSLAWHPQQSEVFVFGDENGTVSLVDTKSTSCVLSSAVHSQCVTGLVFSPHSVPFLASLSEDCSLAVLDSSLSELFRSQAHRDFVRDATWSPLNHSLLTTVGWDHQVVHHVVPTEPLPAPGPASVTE

SMILES | IC50
CN1CCC(Oc2ccc(C(=O)NCC(O)CN3CCc4ccccc4C3)cc2)CC1 (centres unmarked) [Compound 105] | < 100 nM
O=C(NCC(O)CN1CCc2ccccc2C1)c1cccc(OC2CCNC2)c1 (centres unmarked) [Compound 119] | < 100 nM
O=C(NCC(O)CN1CCc2ccccc2C1)c1cn[nH]c1-c1ccccc1 (centres unmarked) [Compound 112] | 101 to 1000 nM
O=C(NC[C@@H](O)CN1CCc2ccccc2C1)c1cccc(OC2CCOCC2)c1 [Compound 83] | 101 to 1000 nM
CC(C)N1CCC(Nc2ccc(C(=O)NCC(O)CN3CCc4ccccc4C3)cc2)CC1 (centres unmarked) [Compound 140] | < 100 nM
CS(=O)(=O)N1CCC(Nc2cccc(C(=O)NCC(O)CN3CCc4ccccc4C3)c2)C1 (centres unmarked) [Compound 122] | < 100 nM
O=C(NCC(O)CN1CCc2ccccc2C1)c1cccc(C2CCOCC2)c1 (centres unmarked) [Compound 99] | < 100 nM
CN1CCC(N(C)c2cccc(C(=O)NCC(O)CN3CCc4ccccc4C3)c2)C1 (centres unmarked) [Compound 132] | < 100 nM
O=C(NCC(O)CN1CCc2ccccc2C1)c1cccc(CO)c1 (centres unmarked) [Compound 151] | 101 to 1000 nM
O=C(NCC(O)CN1CCc2ccccc2C1)c1cc(NC2CCOCC2)ncn1 (centres unmarked) [Compound 63] | < 100 nM
O=C(NC[C@@H](O)CN1CCc2ccccc2C1)Nc1ccccc1 [Compound 6] | 1000 to 10000 nM
CN1CCN(Cc2cccc(C(=O)NCC(O)CN3CCc4ccccc4C3)c2)CC1 (centres unmarked) [Compound 30, N-(3-(3,4-dihydroisoquinolin-2(1H)-yl)-2-hydroxypropyl)-3-((4-methylpiperazin-1-yl)methyl)benzamide] | < 100 nM
Cn1ccnc1C(=O)NCC(O)CN1CCc2ccccc2C1 (centres unmarked) [Compound 171] | < 100 nM
O=C(NCC(O)CN1CCc2ccccc2C1)c1cccc(NC2CCN(CC(F)(F)F)CC2)c1 (centres unmarked) [Compound 126] | < 100 nM
CC(=O)N1CCN(Cc2cccc(C(=O)NCC(O)CN3CCc4ccccc4C3)c2)CC1 (centres unmarked) [Compound 100] | < 100 nM
O=C(NCC(O)CN1CCc2ccccc2C1)c1cccc(N2CCS(=O)(=O)CC2)c1 (centres unmarked) [Compound 164] | < 100 nM

Now from value to compound:

IC50 | SMILES
< 100 nM | CC(=O)N1CCC(Oc2ccc(C(=O)NCC(O)CN3CCc4ccccc4C3)cc2)C1 (centres unmarked) [Compound 197]
< 100 nM | O=C(NC[C@H](O)CN1CCc2ccccc2C1)c1ccnc(NC2CCN(CC(F)(F)F)C2)c1 (some centres unmarked) [Compound 226]
< 100 nM | CN(c1cc(C(=O)NC[C@H](O)CN2CCc3ccccc3C2)ccn1)C1CCC1 [Compound 333]
< 100 nM | Cn1nccc1Nc1cc(C(=O)NC[C@H](O)CN2CCc3ccccc3C2)ccn1 [Compound 325]
< 100 nM | O=C(NC[C@H](O)CN1CCc2ccccc2C1)c1cc2c(F)cccc2[nH]1 [Compound 296]
< 100 nM | CN(CCNc1cc(C(=O)NC[C@H](O)CN2CCc3ccccc3C2)ccn1)S(C)(=O)=O [Compound 262]
< 100 nM | O=C(NC[C@H](O)CN1CCc2ccccc2C1)c1ccnc(OC2CCOCC2)c1 [Compound 323]
< 100 nM | COc1ccc2cc(C(=O)NC[C@H](O)CN3CCc4ccccc4C3)ccc2c1 [Compound 251]
101 to 1000 nM | O=C(NC[C@H](O)CN1CCc2ccccc2C1)c1c[nH]c2ccccc12 [Compound 240]
< 100 nM | CN1CCC(Oc2ccc(C(=O)NCC(O)CN3CCc4ccccc4C3)cc2)C1 (centres unmarked) [Compound 177]
< 100 nM | CNCCN(C)c1cc(C(=O)NC[C@H](O)CN2CCc3ccccc3C2)ccn1 [Compound 233]
< 100 nM | O=C(NC[C@H](O)CN1CCc2ccccc2C1)c1ccc(OC2CCN(Cc3ccncc3)CC2)cc1 [Compound 331]
< 100 nM | O=C(NC[C@H](O)CN1CCc2ccccc2C1)c1ccnc(NCc2ccncc2)c1 [Compound 189]
< 100 nM | O=C(NC[C@H](O)CN1CCc2ccccc2C1)c1cc(NC2CNC2)ncn1 [Compound 280]
< 100 nM | CN(CCN(C)S(C)(=O)=O)c1cc(C(=O)NC[C@H](O)CN2CCc3ccccc3C2)ccn1 [Compound 263]
< 100 nM | C[C@H]1COCCC1Nc1cccc(C(=O)NC[C@H](O)CN2CCc3ccccc3C2)c1 (some centres unmarked) [Compound 213]
